Where “and” joins values, the source holds several entries; their conditions need not be identical. Equal values may be shown once.
Legend:
[1] = biological target: T1, GAL-mERRg (mouse ERRγ ligand binding domain fused to GAL4 DNA binding domain) (Mus musculus, UniProt P62509); test: GAL4 reporter transactivation assay in CV-1 cells, GAL-mERRg; assay type: cell-based; conditions: for Fold activation, GAL-mERRg + PGC-1a / Fold activation, GAL-mERRg / Fold activation, Receptor ERRγ: CV-1; for Fold activation, GAL-mERRg + PGC-1a: reporter 0.42:vector 0.00875:PGC-1a 0.035; for Fold activation, GAL-mERRg: reporter 0.42:vector 0.00875, no PGC-1a; for Fold activation, Receptor ERRγ: Table 1, reporter 0.42:receptor vector 0.035:PGC-1a 0.035; for Activation of ERRγ: in the presence of PGC-1a
T1 construct: expressed in transfected cells; host or cells: CV-1
T1 sequence (P62509 233-457 limits assumed): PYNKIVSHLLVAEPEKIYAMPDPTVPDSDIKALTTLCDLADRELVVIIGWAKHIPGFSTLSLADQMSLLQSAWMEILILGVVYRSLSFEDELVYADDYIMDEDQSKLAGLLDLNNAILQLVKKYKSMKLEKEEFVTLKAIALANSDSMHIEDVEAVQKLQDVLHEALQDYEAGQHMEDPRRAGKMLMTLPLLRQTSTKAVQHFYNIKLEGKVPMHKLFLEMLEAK

[2] = test system: estrogen receptor responsive reporter construct; test: Estrogen receptor responsive reporter in CV-1 cells without receptor (control of Table 1); assay type: cell-based; conditions: Table 1 second block
Description: Human ERα and ERβ were examined as full-length proteins using an estrogen receptor responsive reporter construct.
Suitable reporter gene constructs are well known to skilled workers in the fields of biochemistry and molecular biology. […] Other vectors known in the art can be used in the methods of the present invention.
CV-1 cells for the activation assays were grown in Dulbecco's modified Eagle's medium supplemented with 10% resin charcoal-stripped fetal bovine serum, 50 U/ml penicillin G and 50 μg/ml streptomycin sulfate (DMEM-FBS) at 37° C. in 5% CO2. One day prior to transfection, cells were plated to 50-80% confluence using phenol red free DMEM-FBS.

ERR = test: GAL4-ERR reporter assay in CV-1 cells, potency with versus without PGC-1a; assay type: cell-based; conditions: activated ERR at lower doses in the presence of PGC-1a
Description: Additional compounds were tested for their effects on ERR activation (Tables 3-6). DY159, DY162, DY163 and DY164 as well as DY131 can activate all three ERRs (ERRα/β/γ) in the presence of PGC-1a. […] Therefore, these compounds have two novel features yet to be reported: a) they are selective ERR modulators or coactivator-selective ligands, i.e., they activate ERR better in the presence of PGC-1a then the other coactivators that are normally present in CV-1 cells; and b) these are the first synthetic compounds reported to ACTIVATE ERRα. Previously reported compounds repress the constitutive activity of ERRα (see Willy et al., supra).
Referring to Tables 1-6, cell based transactivation assays were performed in CV-1 cells as described. See Wang, H., Chen, J., Hollister, K., Sowers, L. C., Forman, B. M., Endogenous bile acids are ligands for the nuclear receptor FXR/BAR, Mol Cell 1999, 3, 543-553. ERR activity was assayed with a GAL4 reporter construct and fusion proteins containing the ligand binding domains of human ERRα, human ERR β and mouse ERRγ linked to the DNA binding domain of yeast GAL4. Human ERα and ERβ were examined as full-length proteins using an estrogen receptor responsive reporter construct.
To test the effect of the compounds on ERR and ER, CV-1 cells were transiently transfected with expression vectors for the receptors along with appropriate reporter constructs according to methods known in the art. The receptors to be tested were expressed in CV-1 cells. Suitable reporter gene constructs are well known to skilled workers in the fields of biochemistry and molecular biology. All transfections additionally contained an expression vector with a cytomegalovirus promoter (pCMV-β-gal) as an internal control. Suitable constructs for use in these studies may conveniently be cloned into a cytomegalovirus expression vector (pCMV). For example, pCMV-β-gal contains the E. coli β-galactosidase gene expressed under control of the cytomegalovirus promoter/enhancer. Other vectors known in the art can be used in the methods of the present invention. […]

CCN(CC)c1ccc(C=NNC(=O)c2ccc(O)cc2)cc1 [DY131, 4-Hydroxy-benzoic acid (4-diethylamino-benzylidene)-hydrazide]
Fold activation, GAL-mERRg + PGC-1a ([1]; 0.3 μM): 1.38 fold | Fold activation, GAL-mERRg + PGC-1a ([1]; 1 μM): 1.59 fold | Fold activation, GAL-mERRg + PGC-1a ([1]; 3 μM (first 3 μM column)): 2.65 fold | Fold activation, GAL-mERRg + PGC-1a ([1]; 3 μM (second 3 μM column)): 2.29 fold | Fold activation, GAL-mERRg + PGC-1a ([1]; 10 μM): 2.82 fold | Fold activation, GAL-mERRg + PGC-1a ([1]; 30 μM): 3.09 fold | Fold activation, GAL-mERRg ([1]; 0.3 μM): 0.87 fold | Fold activation, GAL-mERRg ([1]; 1 μM): 0.92 fold | Fold activation, GAL-mERRg ([1]; 3 μM (first 3 μM column)): 1.26 fold | Fold activation, GAL-mERRg ([1]; 3 μM (second 3 μM column)): 1.70 fold | Fold activation, GAL-mERRg ([1]; 10 μM): 1.49 fold | Fold activation, GAL-mERRg ([1]; 30 μM): 1.91 fold | Fold activation, Receptor ERRγ ([1]; 3 μM): 5 fold and 5.0 fold | Fold activation, Receptor ERRγ ([1]; 10 μM): 5.9 fold | Fold activation, Receptor ERRγ ([1]; 30 μM): 6.6 fold | Activation of ERRγ [1]: can activate | Fold activation, Receptor — (second block) ([2]; 3 μM): 1.0 fold | Fold activation, Receptor — (second block) ([2]; 10 μM): 1.1 fold | Fold activation, Receptor — (second block) ([2]; 30 μM): 1.0 fold | Potency of ERR activation with versus without PGC-1a (ERR): more potent activators in the presence of PGC-1a than without

Cc1cccc(C=NNC(=O)c2ccc(O)cc2)c1 [DY159, 4-Hydroxy-benzoic acid (3-methyl-benzylidene)-hydrazide]
Fold activation, GAL-mERRg + PGC-1a ([1]; 1 μM): 1.16 fold | Fold activation, GAL-mERRg + PGC-1a ([1]; 3 μM (first 3 μM column)): 1.45 fold | Fold activation, GAL-mERRg + PGC-1a ([1]; 3 μM (second 3 μM column)): 1.80 fold | Fold activation, GAL-mERRg + PGC-1a ([1]; 10 μM): 2.70 fold | Fold activation, GAL-mERRg + PGC-1a ([1]; 30 μM): 2.56 fold | Fold activation, GAL-mERRg ([1]; 1 μM): 1.39 fold | Fold activation, GAL-mERRg ([1]; 3 μM (first 3 μM column)): 1.28 fold | Fold activation, GAL-mERRg ([1]; 3 μM (second 3 μM column)): 1.22 fold | Fold activation, GAL-mERRg ([1]; 10 μM): 1.36 fold | Fold activation, GAL-mERRg ([1]; 30 μM): 1.01 fold | Activation of ERRγ [1]: can activate | Potency of ERR activation with versus without PGC-1a (ERR): more potent activators in the presence of PGC-1a than without | melting point: 241.9 °C

O=C(NN=Cc1ccccc1)c1ccc(O)cc1 [DY162, 4-Hydroxy-benzoic acid benzylidene-hydrazide]
Fold activation, GAL-mERRg + PGC-1a ([1]; 0.3 μM): 0.92 fold | Fold activation, GAL-mERRg + PGC-1a ([1]; 1 μM): 1.06 fold | Fold activation, GAL-mERRg + PGC-1a ([1]; 3 μM (first 3 μM column)): 1.53 fold | Fold activation, GAL-mERRg + PGC-1a ([1]; 3 μM (second 3 μM column)): 1.63 fold | Fold activation, GAL-mERRg + PGC-1a ([1]; 10 μM): 2.45 fold | Fold activation, GAL-mERRg + PGC-1a ([1]; 30 μM): 2.46 fold | Fold activation, GAL-mERRg ([1]; 0.3 μM): 1.04 fold | Fold activation, GAL-mERRg ([1]; 1 μM): 0.89 fold | Fold activation, GAL-mERRg ([1]; 3 μM (first 3 μM column)): 0.92 fold | Fold activation, GAL-mERRg ([1]; 3 μM (second 3 μM column)): 1.40 fold | Fold activation, GAL-mERRg ([1]; 10 μM): 1.88 fold | Fold activation, GAL-mERRg ([1]; 30 μM): 1.59 fold | Activation of ERRγ [1]: can activate | Potency of ERR activation with versus without PGC-1a (ERR): more potent activators in the presence of PGC-1a than without
